Patent publication US20250207175A1, “METHOD FOR DETECTING CONTAMINATING CARBOXYLESTERASE ACTIVITY” (Boehringer Ingelheim International GmbH, priority 2022, published 2025)
Entries after “also recorded” stand apart in the source; their conditions may differ.

How the values were obtained:
[1] = tested on: porcine pancreatic lipase, PPL (crude extract); assay: OPTS assay: enzymatic hydrolysis of OPTS by PPL; format: biochemical
Description: An aqueous solution of commercially purchased porcine pancreatic lipase, PPL, was prepared (Sigma-Aldrich, US; 100-500 Units/mg protein). According to the manufacturer, this powder mainly contains triacylglycerol lipase, but since it is a homogenised powder from freeze-dried porcine pancreas (crude extract), it is likely to further contain other carboxylesterases and lipases. These enzymes hydrolyse fatty acid esters and this extract was therefore selected for functional tests.
To record the reaction kinetics of the substrate OPTS with PPL, an aqueous 10 mg/mL PPL solution was prepared by adding 10 mg PPL to 1 mL H2O. The suspension was vortexed for 2 min and centrifuged at 14,000×g for 5 min before the supernatant was removed.
A reaction mixture of 75 μL AMT buffer (pH=7), 165 μL H2O and 30 μL of an aqueous 10 mg*mL-1 PPL solution was started with the addition of 30 μL of a 250 μM OPTS solution. The increase in fluorescence was recorded over 30 min with 15 s measuring intervals (n=2). As control (blank) served a preparation without PPL (only with H2O). […] The calculated reaction rate is 2.89±0.08*10-5 units (μmol*min-1). […]
Further inhibition of the non-ionic detergent polysorbate 20 (Tween 20) was tested. […] No inhibition was observed until 50 μg/ml at pH 7.0, but higher concentrations reduced the fluorescence signal (FIG. 5B). […]

[2] = derivable from literature; cited from earlier work
[3] = tested on: contaminating host cell proteins with hydrolase (carboxylesterase) activity in antibody solutions; assay: OPTS assay on antibody preparations (drug substance samples); format: biochemical, CHO K1 or DG44 cells; conditions: orlistat 10 μM, PMSF 1 mM, EDTA 10 mM; all 9 antibody samples
Source text: In order to be able to determine the enzymatic activity, a substrate, 1-octanoyloxy-pyrene-3,6,8-trisulfonic acid trisodium salt (OPTS), was chosen. Its hydrolytic product, 1-hydroxypyrene-3,6,8-trisulfonic acid trisodium salt (HPTS), can be detected by fluorescence spectroscopy. The change in the fluorescence signal over time is directly related to the change in the concentration of free fluorophore. The conversion was made possible by setting up a calibration curve with a subsequent linear fit (R^2≥0.99). The experiments of the kinetics measurements with the OPTS/4-MUD substrates assay were performed in duplicates. The reaction mixture without the protein of interest, which served as the respective control, was subtracted from the protein-containing batch. The buffer used for OPTS measurements (hydrophilic substrate) contained 0.3 M HOAc, 0.3 M MES, 0.6 M TRIS and 0.6 M NaCl (4×AMT buffer; acetate, MES, TRIS). For 4-MUD substrate measurements (lipophilic substrate) 0.04 M CHAPS was added in addition. […] All measurements were carried out in multiwell plates with a preparation volume of 300 μL (75 μL 4×AMT buffer, 30 μL substrate, 75 μL enzyme-containing solution, x μL additive, 300 μL ad. H2O) Unless otherwise stated, all fluorescence spectroscopic measurements were performed using 96-well, clear-bottom, non-binding plates (Greiner, Austria) on a SpectraMax M3 PlateReader (Molecular Device, USA) and recorded using SoftMax Pro 7.0.3 software (Molecular Device, USA). […] For evaluation, the detected fluorescence signal for a reaction mix without protein of interest (control) was subtracted from the reaction mix with protein of interest (e.g. DS). Hydrolysis of the substrate has been measured by detecting the fluorescence intensity of the released chromophore (4-MU or HPTS) immediately following mixing in real-time for a few minutes up to 5 hours depending on fluorescence intensity. The changes in the fluorescence signal over time were subsequently converted to hydrolytic activity using previously established calibration curves with a linear fit (R^2≥0.99). […]

[4] = tested on: contaminating host cell proteins with hydrolytic (lipase) activity in antibody solutions; assay: 4-MUD assay on antibody preparations (drug substance samples); format: biochemical, CHO K1 or DG44 cells; conditions: all 9 antibody samples; for effect of inhibitor on hydrolytic activity in the 9 antibody samples, 4-MUD assay: orlistat 10 μM, PMSF 1 mM, EDTA 10 mM
Source text: In order to be able to determine the enzymatic activity, a substrate, 1-octanoyloxy-pyrene-3,6,8-trisulfonic acid trisodium salt (OPTS), was chosen. Its hydrolytic product, 1-hydroxypyrene-3,6,8-trisulfonic acid trisodium salt (HPTS), can be detected by fluorescence spectroscopy. The change in the fluorescence signal over time is directly related to the change in the concentration of free fluorophore. The conversion was made possible by setting up a calibration curve with a subsequent linear fit (R^2≥0.99). The experiments of the kinetics measurements with the OPTS/4-MUD substrates assay were performed in duplicates. The reaction mixture without the protein of interest, which served as the respective control, was subtracted from the protein-containing batch. The buffer used for OPTS measurements (hydrophilic substrate) contained 0.3 M HOAc, 0.3 M MES, 0.6 M TRIS and 0.6 M NaCl (4×AMT buffer; acetate, MES, TRIS). For 4-MUD substrate measurements (lipophilic substrate) 0.04 M CHAPS was added in addition. The buffer (AMT) was prepared in four-fold concentration (4×AMT) and was added at 25% (v/v) to the reaction mix. All measurements were carried out in multiwell plates with a preparation volume of 300 μL (75 μL 4×AMT buffer, 30 μL substrate, 75 μL enzyme-containing solution, x μL additive, 300 μL ad. H2O) Unless otherwise stated, all fluorescence spectroscopic measurements were performed using 96-well, clear-bottom, non-binding plates (Greiner, Austria) on a SpectraMax M3 PlateReader (Molecular Device, USA) and recorded using SoftMax Pro 7.0.3 software (Molecular Device, USA). The OPTS assay measurements were typically taken at 25° C., λex=403 nm and λem=512 nm and the 4-MUD assay measurements were taken at 25° C., λex=330 nm and λem=450 nm. For evaluation, the detected fluorescence signal for a reaction mix without protein of interest (control) was subtracted from the reaction mix with protein of interest (e.g. DS). Hydrolysis of the substrate has been measured by detecting the fluorescence intensity of the released chromophore (4-MU or HPTS) immediately following mixing in real-time for a few minutes up to 5 hours depending on fluorescence intensity. The changes in the fluorescence signal over time were subsequently converted to hydrolytic activity using previously established calibration curves with a linear fit (R^2≥0.99).
The target concentration of OPTS was 25 μM and the target concentration of 4-MUD was 30 μM. […]
(§1) To generate pH profiles of the protein solutions, kinetic measurements were carried out as described above at the indicated pH value. The added AMT buffer was adjusted to the pH indicated in a range of pH 4-8 (0.5 steps) and the kinetics were recorded for each pH value.

[5] = tested on: purified commercially available lipase (lysosomal lipase); assay: 4-MUD assay on a purified commercially available lipase; format: biochemical; conditions: 10 μM orlistat, 1 mM PMSF, 10 mM EDTA; pH 5.5
Description: The target concentration of OPTS was 25 μM and the target concentration of 4-MUD was 30 μM. For preparing a master mix, 4×AMT buffer was mixed with the appropriate volume of H2O in a Falcon tube. The dialysed antibody (Ab) preparation samples (drug substance) or control solutions (75 μl) were transferred to 96 well plates. Optional inhibitors (10 μM orlistat, 1 mM PMSF and 10 mM EDTA) were added to the master mix comprising 4×AMT buffer and water and substrate (3 μl/sample 3 mM 4-MUD in DMSO or […] 250 μM OPTS in H2O, aliquoted and frozen). The 4-MUD substrate was stored at a concentrated stock solution comprising 3 mM 4-methylumbelliferyl decanoate (4-MUD; FM25973, Carbosynth) in DMSO resulting in a 100× stock solution for use comprising […] in DMSO. The 250 μM OPTS stock solution was prepared in H2O, aliquoted and frozen until use. […] The reaction was then started by adding the master mix (reaction solution) to the protein solution or control solution, respectively. The measurement was started immediately. The measuring time was 30 min and the measuring intervals 15 s. Stock solutions of the inhibitors were used as follows: 300 μM orlistat (Sigma-Aldrich, USA) in DMSO, 100 mM PMSF (Roth, Germany) in isopropanol and 500 mM EDTA (Sigma-Aldrich, USA) in H2O.
as §1
Further, a purified commercially available lipase with unknown substrate specificity was analysed using the 4-MUD and OPTS assay. First, hydrolysis of both soluble (OPTS) and hydrophobic (4-MUD) carboxyl esters, as well as the influence of orlistat, PMSF and EDTA on the hydrolytic activity of the lipase were investigated.
Furthermore, the lipase was tested for its pH dependence in the OPTS and 4-MUD substrate assays. For this purpose, the hydrolytic activity was examined at pH=4-8.

Row | SMILES | CMC [2] | effect of inhibitor on hydrolytic activity in the 9 antibody samples, OPTS assay [3] | effect of inhibitor on hydrolytic activity in the 9 antibody samples, 4-MUD assay [4] | influence of inhibitors on hydrolytic activity of the lipase, 4-MUD substrate [5] | also measured
1 | C[C@H](CCC(=O)NCCC[N+](C)(C)CCCS(=O)(=O)[O-])[C@H]1CC[C@H]2[C@@H]3[C@H](O)C[C@@H]4C[C@H](O)CC[C@]4(C)[C@H]3C[C@H](O)[C@]12C [CHAPS, 3-[(3-cholamidopropyl)dimethylammonio]-1-propanesulfonate] | about 6 mM | – | – | – | activity in the presence of 10 mM CHAPS ([1]; 1 mg*mL-1 PPL, 25 μM OPTS, AMT pH 7, 10 mM CHAPS): 6.16*10^−7 units
2 | C[C@H](CCC(=O)NCCC[N+](C)(C)CC(O)CS(=O)(=O)[O-])[C@H]1CC[C@H]2[C@@H]3[C@H](O)C[C@@H]4C[C@H](O)CC[C@]4(C)[C@H]3C[C@H](O)[C@]12C (stereo partly drawn) [CHAPSO, 3-([3-Cholamidopropyl)dimethylammonio]-2-hydroxy-1-propanesulfonate] | about 8 mM | – | – | – | –
3 | O=C(O)CN(CCN(CC(=O)O)CC(=O)O)CC(=O)O [EDTA] | – | Neither orlistat, nor PMSF or EDTA significantly reduced; also recorded: no inhibition | hardly any inhibition; also recorded: no inhibition | only minor effects | –
4 | O=S(=O)(F)Cc1ccccc1 [PMSF] | – | Neither orlistat, nor PMSF or EDTA significantly reduced | sight inhibition | only minor effects | –
5 | CCCCCCCCCCCC(=O)OCCOCCOCCOCCOCCOCCOCCOCCOCCOCCOCCOCCOCCOCCOCCOCCOCCOCCOCCOCCOCC(OCCOCCOCCOCCOCCOCCOCCOCCOCCOCCOCCOCCOCCOCCOCCOCCOCCOCCOCCOCCO)C1OCC(OCCOCCOCCOCCOCCOCCOCCOCCOCCOCCOCCOCCOCCOCCOCCOCCOCCOCCOCCOCCO)C1OCCOCCOCCOCCOCCOCCOCCOCCOCCOCCOCCOCCOCCOCCOCCOCCOCCOCCOCCOCCO (stereo not drawn) [Polysorbate 20, polyoxyethylene (20) sorbitan monolaurate] | – | – | – | – | concentration until which no inhibition was observed ([1]; PPL, pH 7.0, target concentrations 200 μg/mL to 0.098 μg/mL tested): ≤ 50 µg/mL
6 | CCCCCCCCCCCC[N+](C)(C)CCCS(=O)(=O)[O-] [Zwittergent 3-12, n-Dodecyl-N,N-dimethyl-3-ammonio-1-propanesulfonate] | 2 to 4 mM | – | – | – | –
7 | CCCCCCCCCCC[C@@H](C[C@@H]1OC(=O)[C@H]1CCCCCC)OC(=O)[C@H](CC(C)C)NC=O [orlistat] | – | Neither orlistat, nor PMSF or EDTA significantly reduced | pronounced inhibition; also recorded: strong inhibition | almost completely inhibited | residual activities with orlistat ([4]; 10 μM orlistat, % of hydrolysis activity without inhibitor): 18-21%
